14 compounds from ChEMBL document CHEMBL1155996, “Improving potency and selectivity of a new class of non-Zn-chelating MMP-13 inhibitors” (Bioorg Med Chem Lett, 2009) can be followed below.

As usually defined, the solubility is how much of the substance goes into solution per volume. What is called IC50 is the concentration at which inhibition is half-maximal. A lower IC50 goes with higher potency.

Converted amounts (≈) assume the structure as drawn. Where only a bound is given, the exact number is not on record here.

The nature of data set [1]: Solubility of compound at pH 4.5 by high throughput screening. To be noted: buffer. In kind it is physicochemical.
The nature of data set [2]: Solubility of compound at pH 7.4 by high throughput screening. In kind it is physicochemical. To be noted: buffer.
Another data set deals with Collagenase 3 (Homo sapiens, UniProt P45452). In words: Inhibition of human MMP13 by FRET assay.

As for `CNC(=O)[C@@H](NC(=O)c1ccc(-c2ccc(Cl)cn2)o1)C1CCCCC1`, the solubility in data set [1] is 35 µg/mL (≈ 93.1 µM); in data set [2] it was 37 µg/mL (≈ 98.4 µM).
With `CNC(=O)[C@@H](NC(=O)c1ccc(-c2ccc(NC(C)=O)cc2)o1)C1CCCCC1`, the solubility in data set [1] was 15 µg/mL (≈ 37.7 µM); in data set [2], 17 µg/mL (≈ 42.8 µM). On Collagenase 3, this compound displayed an IC50 of 1.55 µM.
The corresponding values for `CNC(=O)c1ccc(-c2ccc(C(=O)N[C@H](C(=O)NC)C3CCCCC3)o2)cc1` are 16 µg/mL (≈ 40.3 µM), 17 µg/mL (≈ 42.8 µM) and 6 µM.
Take `CNC(=O)[C@@H](NC(=O)c1ccc(-c2ccc(OCc3cccc(C)n3)cn2)o1)C1CCCCC1`: the solubility in data set [1] was found to be 7.4 µg/mL (≈ 16 µM); in data set [2] it was 3.4 µg/mL (≈ 7.35 µM).
`CNC(=O)[C@@H](NC(=O)c1ccc(-c2ccc(Oc3ccccc3)cc2)o1)C1CCCCC1` gave an IC50 at Collagenase 3 greater than 50 µM.
Consider `CNC(=O)[C@@H](NC(=O)c1ccc(-c2ccc(NS(C)(=O)=O)cc2)o1)C1CCCCC1`, for which the figures for the solubility in data set [1] and in data set [2] were 53 µg/mL (≈ 122 µM) and 61 µg/mL (≈ 141 µM), respectively.
The corresponding values for `CNC(=O)[C@@H](NC(=O)c1ccc(-c2ccc(OCc3cc4ccccc4o3)cn2)o1)C1CCCCC1` are less than 0.1 µg/mL and 0.1 µg/mL (≈ 0.205 µM).
With `CNC(=O)[C@@H](NC(=O)c1ccc(-c2ccc(Cl)cc2)o1)C1CCCCC1`, the solubility was 1.5 µg/mL (≈ 4 µM) in data set [1] and 1.9 µg/mL (≈ 5.07 µM) in data set [2].
Regarding `CNC(=O)[C@@H](NC(=O)c1ccc(-c2ccc(OCc3cc(C)n[nH]3)cn2)o1)C1CCCCC1`, the values for the solubility in data set [1] and in data set [2] were 25 µg/mL (≈ 55.4 µM) and 31 µg/mL (≈ 68.7 µM), respectively.
Turning to `CCOc1ccc(-c2ccc(C(=O)N[C@H](C(=O)NC)C3CCCCC3)o2)nc1`, the solubility is 33 µg/mL (≈ 85.6 µM) in data set [1] and greater than 49 µg/mL in data set [2].
Consider `CNC(=O)[C@@H](NC(=O)c1ccc(-c2ccc(OCc3cc(C)n(C)n3)cn2)o1)C1CCCCC1`, for which the solubility in data set [1] and in data set [2] was greater than 57 µg/mL throughout.
As for `CNC(=O)[C@@H](NC(=O)c1ccc(-c2ccc(S(=O)(=O)NC)cc2)o1)C1CCCCC1`, the solubility worked out at 50 µg/mL (≈ 115 µM) in data set [1] and 52 µg/mL (≈ 120 µM) in data set [2].
As for `CNC(=O)[C@@H](NC(=O)c1ccc(-c2ccc(OCc3ccn[nH]3)cn2)o1)C1CCCCC1`, the figures for the solubility in data set [1] and in data set [2] were 39 µg/mL (≈ 89.1 µM) and 43 µg/mL (≈ 98.3 µM), respectively.
The corresponding values for `CNC(=O)[C@@H](NC(=O)c1ccc(-c2ccc(OC)cc2)o1)C1CCCCC1` are 1.4 µg/mL (≈ 3.78 µM) and 1.6 µg/mL (≈ 4.32 µM).
